Test results as given in US20140322704A1, “Hepatitis Virus Culture Systems Using Stem Cell-Derived Human Hepatocyte-Like Cells and Their Methods of Use” (The Florida State University Research Foundation, Inc., priority 2011, published 2014).

What was measured:
Format in all cases: cell-based
[1] = test system: JFH-1 based HCVcc; experiment: HCVcc infection of DHHs in the presence of HCV inhibitors (FIG. 2D)
Source text: FIG. 2 depicts the results of experiments assessing infection of DHHs derived from hESCs and iPSCs. (A) Detection of HCV proteins in DHHs infected with JFH-1 based HCVcc. DHHs were inoculated with three different preparations of HCVcc at day 13 post-differentiation and cell lysates collected at day 21 for western blot analysis. The anti-NS3 antibody also recognized a non-specific band in the mock infected sample. (B) Immunostaining of infected DHHs. A JFH variant containing a FLAG tag in the NS5A protein was used to infect either Huh-7.5 or DHHs and staining was done with an anti-FLAG antibody. (C) Infection of Huh-7.5 and DHHs as measured by the HCV-dependent fluorescence relocalization assay. Reporter-transduced cells were infected with HCVcc and the cells were fixed for immunofluorescence analysis 72 hours post-infection. For the RFP-NLS-IPS expressing cells, HCV infection leads to complete nuclear translocation of the RFP; for the EGFP-IPS cells, HCV infection leads to redistribution of green fluorescence from a reticulate cytoplasmic pattern to a diffused pattern with a nuclear enrichment. […] The following inhibitors were included in the infection experiments. IFN: interferon-α, 80 units/ml; AR3A: anti-E2 neutralizing antibody, 1 μg/ml; ITX: ITX5061, an SR-BI inhibitor, 1 μM. (E) Comparison of HCVcc infection levels in DHHs and PHHs. PHHs were infected for 8 days to keep the infected days the same between the two cell types (DHHs were infected at day 13 and the lysed at day 21). (F) Infection of DHHs derived from an iPSC line. Differentiation and infection of iPS.K3 were performed as described for H9-derived DHHs (FIG. 1 and FIG. 2A).
All JFH-1 based HCVcc (Mut4-6, SAV, Jc1/GLuc2A, and DEYN-Jc1/GLuc2A) were produced in Huh-7.5 cells as previously described (2005, Lindenbach, et al., Science 309:623-626). Genotype 1b HCVser was obtained from a commercial supplier (Teragenix, Ft. Lauderdale, Fla.). All infections were done by incubating virus inoculum with cells for 6-9 hours before the cells were washed and changed into the appropriate medium for the specific cell type and differentiation stage. For the time course of DHHs permissiveness, infection of each time point was allowed to proceed for exactly 48 hours before cell harvesting and western blotting. Immunofluorescence analysis of HCV receptors and intracellular antigens. Cells were fixed in 4% paraformaldehyde in phosphate-buffered saline (PBS) at room temperature for 10 minutes and blocked with PBGB (PBS containing 10% normal goat serum, and 1% bovine serum albumin (BSA)) at room temperature for 2 hours. Cells were incubated with primary antibodies (anti-CD81, anti-SR-B1, anti-claudin 1 and anti-occludin, diluted in PBG at 1:200) at 4° C. overnight or 2 hours at room temperature. […]

[2] = test system: HCVcc; experiment: Secretion of HCV core antigen into culture medium by HCVcc-infected DHHs, core ELISA (FIG. 3B); settings: IFN-α 50 units/ml; 48 hours after infection; H9-derived DHHs
Procedure: FIG. 3 depicts the results of experiments showing that DHHs support persistent infection and secrete infectious HCV particles. (A) Continuous replication of HCVcc in DHHs. Day-10 DHHs were infected with Jc1/GLuc2A for 9 hours before the inoculum was removed and the cells were changed into medium E with or without a cyclophilin inhibitor CsA at 1 μg/ml. Culture supernatants were collected daily to measure luciferase activity. The culture media was replaced with thorough washing every 48 hours and CsA was included every time fresh media was used. Error bars represent standard deviation from triplicate experiments. (B) Secretion of HCV core antigen into the culture medium by infected DHHs. […]
To quantify miR-122 levels, TRIzol extracted RNA samples were reverse transcribed using TaqMan MicroRNA Reverse Transcription kit (Applied Biosystems) and the resulting cDNA served as templates for Real-Time PCR analysis using TaqMan MicroRNA Assay for miR-122 (Applied Biosystems). […]
To verify continuous viral replication during the infection period, the secretion of Gaussia luciferase into the culture media by the DHHs infected with the GLuc reporter virus was monitored using a procedure previously used to monitor persistent HCV infection in microscale PHHs (2010, Floss et al., Proc Natl Acad Sci USA 107:3141-3145). […]

[3] = test system: genotype 1b HCVser; experiment: Infection of DHHs by patient serum-derived HCV, western blotting (FIG. 7A); settings: IFN-α 50 units/ml; genotype 1b patient serum; 48 hours
Source text: FIG. 7 depicts the results of experiments assessing the direct infection of DHHs by HCV derived from patient serum. (A) Detection of IFN-sensitive HCVser infection by western blotting IFN-α was included in the medium at 50 units/ml when indicated. (B) Visualization of single cell infection events by HCVser using the HCV-dependent fluorescence relocalization assay. Arrows indicate individual cells infected with HCVser and showing nuclear translocation of the RFP. (C) Secretion of HCV core antigen into culture supernatant by HCVser-infected DHHs. Values for core levels in supernatants collected 48 hours post-infection were plotted. IFN-α was included in the medium at 50 units/ml when indicated. Error bars represent standard deviation of replicate experiments. (D) HCVser preferentially infected DHHs over Huh-7.5 cells. […]
Although robust infection of PHHs by HCVcc has been reported (2010, Podevin et al., Gastroenterology 1355-1364; 2010, Ploss et al., Proc Natl Acad Sci USA 107:3141-3145; 2010, Banaudha et al., Hepatology 51:1922-1932), direct infection by HCV derived from patient serum (HCVser) remained inefficient (2010, Podevin et al., Gastroenterology. 139:1355-1364; 1998, Fournier et al., J Gen Virol. 79:2367-2374). […] In addition, secretion of HCV core antigen was detected in the supernatant of the DHHs infected by HCVser (FIG. 7C).

Compound | HCV infection in DHHs ([1]; ITX5061 1 μM) | HCV infection in DHHs ([1]; ITX5061 1 μM, listed as small molecule compound that inhibits the scavenger receptor class B type I (SR-) | HCV infection in DHHs ([1]; interferon-α 80 units/ml) | HCV infection in DHHs ([1]; interferon-α 80 units/ml, listed as IFN) | HCV core antigen in the supernatant of infected cells [2] | HCVser infection of DHHs detected by western blotting [3]
COc1c(NC(=O)C(=O)c2ccc(OCCN3CCOCC3)c3ccccc23)cc(C(C)(C)C)cc1NS(C)(=O)=O [ITX5061] | abolished HCV infection | efficiently blocked infection |  |  |  | 
interferon-α [IFN-α] |  |  | efficiently blocked infection | abolished HCV infection | not in that of the similarly infected but IFN-treated cells | sensitive to IFN inhibition
